Measurements taken from patent US20260042755A1, “GPR6 INVERSE AGONISTS” (MapLight Therapeutics, Inc., priority 2022, published 2026).
Each block holds one compound with its values, some of them ahead of it.

What was measured:
GPR3 = biological target: T1, GPR3 (Homo sapiens, UniProt P46089); assay: GPR3 antagonist functional cAMP assay (LANCE Ultra cAMP TR-FRET, CHO cells stably expressing GPR3); format: cell-based
T1 construct: expressed in transfected cells; host or cells: CHO cells
Method in brief: (§1)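 Compounds, at 0.1% final DMSO, acted on the cells for 45 minutes at 37 °C in the presence of the phosphodiesterase inhibitor Ro 20-1724 (150 μM). After lysis and detection, plates were shaken 1 h at room temperature and emission at 665 nm was recorded. Normalized data gave IC50 values.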

GPR6 = biological target: T2, GPR6 (Homo sapiens, UniProt P46095); assay: GPR6 antagonist functional cAMP assay (LANCE Ultra cAMP TR-FRET, CHO cells stably expressing GPR6); format: cell-based
T2 construct: expressed in transfected cells; host or cells: CHO cells
T2 sequence (P46095 whole entry): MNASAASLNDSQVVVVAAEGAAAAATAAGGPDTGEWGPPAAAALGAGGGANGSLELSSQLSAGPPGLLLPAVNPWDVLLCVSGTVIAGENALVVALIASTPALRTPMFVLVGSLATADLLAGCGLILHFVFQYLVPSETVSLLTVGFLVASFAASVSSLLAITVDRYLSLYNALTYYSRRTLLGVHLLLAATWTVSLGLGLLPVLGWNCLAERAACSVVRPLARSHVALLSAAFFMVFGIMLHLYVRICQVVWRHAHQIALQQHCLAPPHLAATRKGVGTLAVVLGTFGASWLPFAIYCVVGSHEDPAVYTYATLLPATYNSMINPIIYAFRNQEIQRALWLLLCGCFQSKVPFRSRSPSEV
Method in brief: as §1

[1] = procedure as described in Example 24
[2] = CHO cells stably expressing GPR3, cAMP assay
[3] = CHO cells stably expressing GPR6, cAMP assay
[4] = CHO cells stably expressing GPR3, cAMP assay (Example 24)
[5] = CHO cells stably expressing GPR6, cAMP assay (Example 24)

T1 sequence (P46089 whole entry, species assumed): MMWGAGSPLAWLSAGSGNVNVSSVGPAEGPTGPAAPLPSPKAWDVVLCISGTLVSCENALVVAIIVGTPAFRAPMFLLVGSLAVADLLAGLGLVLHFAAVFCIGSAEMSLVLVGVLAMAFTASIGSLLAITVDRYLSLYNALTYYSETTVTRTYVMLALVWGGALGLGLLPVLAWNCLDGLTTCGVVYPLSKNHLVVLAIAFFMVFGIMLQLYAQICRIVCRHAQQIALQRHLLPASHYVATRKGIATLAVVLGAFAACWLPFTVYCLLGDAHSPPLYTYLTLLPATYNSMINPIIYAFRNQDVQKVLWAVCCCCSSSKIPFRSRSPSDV

IC50 (GPR3; procedure of Example 24): 1000 to 30000 nM | IC50 (GPR6; procedure of Example 24): < 100 nM
SMILES: CC(C)(O)[C@H](O)c1cc2nc(N3CCC(=Cc4ccc(F)cc4F)CC3)c(-c3cnn(C(F)F)c3)nc2cn1 (single isomer, unassigned) [Compound 779]

IC50 (GPR3; procedure of Example 24): 1000 to 30000 nM | IC50 (GPR6; procedure of Example 24): < 100 nM
SMILES: C=CC(=O)N1CCc2nc(N3CCC(Oc4ccc(F)cc4F)CC3)c(-c3ccc(F)c(N)n3)nc2C1 [Compound 626, 1-{3-(6-amino-5-fluoro-2-pyridyl)-2-[4-(2,4-difluorophenoxy)-1-piperidyl]-5,6,7,8-tetrahydro-1,4,6-triaza-6-naphthyl}-2-propen-1-one]

IC50 (GPR3; procedure of Example 24): 1000 to 30000 nM | IC50 (GPR6; procedure of Example 24): 100 to 1000 nM
SMILES: CC(C)(O)[C@@H](O)c1cc2nc(-c3cnn(CF)c3)c(N3CCN(Cc4cc(F)ccc4F)CC3)nc2cn1 (single isomer, unassigned) [Compound 724]

IC50 (GPR3; procedure of Example 24): 1000 to 30000 nM | IC50 (GPR6; procedure of Example 24): 100 to 1000 nM
SMILES: OCCNc1cc2nc(-c3cnn(CF)c3)c(N3CCN(Cc4ccc(F)cc4F)CC3)nc2cn1 [Compound 759, 2-(3-{4-[(2,4-difluorophenyl)methyl]-1-piperazinyl}-2-[1-(fluoromethyl)-4-pyrazolyl]-1,4,6-triaza-7-naphthylamino)ethanol]

IC50 (GPR3; [1]): 1000 to 30000 nM | IC50 (GPR6; [1]): 100 to 1000 nM
SMILES: CC(=O)N1CCc2nc(N3CCC(Oc4ccc(F)cc4F)CC3)c(-c3cnn(CCF)c3)nc2C1 [Compound 16, 1-{2-[4-(2,4-difluorophenoxy)piperidin-1-yl]-3-[1-(2-fluoroethyl)-1H-pyrazol-4-yl]-5H,6H,7H,8H-pyrido[3,4-b]pyrazin-6-yl}ethan-1-one]

IC50 (GPR3; [2]): 1000 to 30000 nM | IC50 (GPR6; [3]): < 100 nM
SMILES: CC(C)(O)[C@H](O)c1cc2nc(N3CCC(Oc4ccc(F)cc4F)CC3)c(-c3cnn(C(F)F)c3)nc2cn1 (single isomer, unassigned) [Compound 554]

IC50 (GPR3; procedure of Example 24): 1000 to 30000 nM | IC50 (GPR6; procedure of Example 24): 100 to 1000 nM
SMILES: CC(C)(O)[C@](C)(O)c1cc2nc(N3CCN(Cc4ccccc4F)CC3)c(-c3cnn(CF)c3)nc2cn1 (single isomer, unassigned) [Compound 675]

IC50 (GPR3; [2]): 1000 to 30000 nM | IC50 (GPR6; [3]): 1000 to 30000 nM
SMILES: CCc1cncc(-c2nc3c(nc2N2CCC(Oc4ccc(F)cc4F)CC2)CCN(C(C)=O)C3)n1 [Compound 493, 1-{2-[4-(2,4-difluorophenoxy)piperidin-1-yl]-3-(6-ethylpyrazin-2-yl)-5H,6H,7H,8H-pyrido[3,4-b]pyrazin-6-yl}ethan-1-one]

IC50 (GPR3; [4]): 1000 to 30000 nM | IC50 (GPR6; [5]): 100 to 1000 nM
SMILES: COC(CO)c1cc2nc(N3CCC(Oc4ccc(F)cc4F)CC3)c(-c3cnn(C)c3)nc2cn1 (stereo not drawn) [Compound 438, 2-(2-(4-(2,4-difluorophenoxy)piperidin-1-yl)-3-(1-methyl-1H-pyrazol-4-yl)pyrido[3,4-b]pyrazin-7-yl)-2-methoxyethan-1-ol]

IC50 (GPR3; [4]): 1000 to 30000 nM | IC50 (GPR6; [5]): 1000 to 30000 nM
SMILES: OCCN1CCc2nc(N3CCC(Oc4ccc(F)cc4F)CC3)c(-c3cnn(C4CCCCO4)c3)nc2C1 (stereo not drawn) [Compound 140, 2-{2-[4-(2,4-difluorophenoxy)piperidin-1-yl]-3-[1-(oxan-2-yl)-1H-pyrazol-4-yl]-5H,6H,7H,8H-pyrido[3,4-b]pyrazin-6-yl}ethan-1-ol]

IC50 (GPR3; [4]): 1000 to 30000 nM | IC50 (GPR6; [5]): 100 to 1000 nM
SMILES: CCn1cc(-c2nc3c(nc2N2CCC(Oc4cc(Cl)ccc4Cl)CC2)CCN(C[C@@H](O)CO)C3)cn1 (single isomer, unassigned) [Compound 408]

IC50 (GPR3; [4]): 1000 to 30000 nM | IC50 (GPR6; [5]): 100 to 1000 nM
SMILES: CC(=O)N1CCc2nc(N3CCC(Oc4ccc(F)cc4F)CC3)c(-c3cncc(N)n3)nc2C1 [Compound 465, 1-[3-(6-aminopyrazin-2-yl)-2-[4-(2,4-difluorophenoxy)piperidin-1-yl]-5H,6H,7H,8H-pyrido[3,4-b]pyrazin-6-yl]ethan-1-one]

IC50 (GPR3; [4]): 1000 to 30000 nM | IC50 (GPR6; [5]): 1000 to 30000 nM
SMILES: COc1cnnc(-c2nc3c(nc2N2CCC(Oc4ccc(F)cc4F)CC2)CCN(C(C)=O)C3)c1 [Compound 192, 1-{2-[4-(2,4-difluorophenoxy)piperidin-1-yl]-3-(5-methoxypyridazin-3-yl)-5H,6H,7H,8H-pyrido[3,4-b]pyrazin-6-yl}ethan-1-one]

IC50 (GPR3; [1]): 1000 to 30000 nM | IC50 (GPR6; [1]): 1000 to 30000 nM
SMILES: Fc1ccc(NC2CCN(c3nc4ccncc4nc3-c3cn[nH]c3)CC2)c(F)c1 [Compound 35, 1-(3-(1H-pyrazol-4-yl)pyrido[3,4-b]pyrazin-2-yl)-N-(2,4-difluorophenyl)piperidin-4-amine]

IC50 (GPR3; procedure of Example 24): 1000 to 30000 nM | IC50 (GPR6; procedure of Example 24): ≥ 30000 nM
SMILES: CC(=O)N1CCc2nc(N3CCCC(Oc4cccc(F)c4)C3)c(-c3cnn(C)c3)nc2C1 (stereo not drawn) [Compound 337, 1-{2-[3-(3-fluorophenoxy)piperidin-1-yl]-3-(1-methyl-1H-pyrazol-4-yl)-5H,6H,7H,8H-pyrido[3,4-b]pyrazin-6-yl}ethan-1-one]

IC50 (GPR3; procedure of Example 24): 1000 to 30000 nM | IC50 (GPR6; procedure of Example 24): 100 to 1000 nM
SMILES: CC(C)(O)[C@](C)(O)c1cc2nc(N3CCC(Oc4ccc(F)cc4F)CC3)c(-c3cnn(C4CC4)c3)nc2cn1 (single isomer, unassigned) [Compound 664]

IC50 (GPR3; [2]): 1000 to 30000 nM | IC50 (GPR6; [3]): 100 to 1000 nM
SMILES: CCn1cc(-c2nc3c(nc2N2CCC(Oc4ccc(F)cc4F)CC2)CCN(C(=O)C(O)C(C)(C)O)C3)cn1 (stereo not drawn) [Compound 521, 1-{2-[4-(2,4-difluorophenoxy)-1-piperidyl]-3-(1-ethyl-4-pyrazolyl)-5,6,7,8-tetrahydro-1,4,6-triaza-6-naphthyl}-2,3-dihydroxy-3-methyl-1-butanone]

IC50 (GPR3; [2]): 1000 to 30000 nM | IC50 (GPR6; [3]): 1000 to 30000 nM
SMILES: COC1CCC(c2nc3c(nc2N2CCC(Oc4ccc(F)cc4F)CC2)CCN(C(=O)CO)C3)CC1 (stereo not drawn) [Compound 520, 1-{2-[4-(2,4-difluorophenoxy)-1-piperidyl]-3-(4-methoxycyclohexyl)-5,6,7,8-tetrahydro-1,4,6-triaza-6-naphthyl}-2-hydroxy-1-ethanone]

IC50 (GPR3; [4]): 1000 to 30000 nM | IC50 (GPR6; [5]): 1000 to 30000 nM
SMILES: CC(=O)N1CCc2nc(N3CCC(Oc4ccc(F)cc4)CC3)c(-c3cnn(C)c3)nc2C1 [Compound 421, 1-{2-[4-(4-fluorophenoxy)piperidin-1-yl]-3-(1-methyl-1H-pyrazol-4-yl)-5H,6H,7H,8H-pyrido[3,4-b]pyrazin-6-yl}ethan-1-one]

IC50 (GPR3; [1]): 1000 to 30000 nM | IC50 (GPR6; [1]): 1000 to 30000 nM
SMILES: Fc1ccc(OC2CCN(c3nc4ccncc4nc3-c3cnc[nH]3)CC2)c(F)c1 [Compound 54, 4-(2,4-difluorophenoxy)-1-[3-(1H-imidazol-5-yl)pyrido[3,4-b]pyrazin-2-yl]piperidine]

IC50 (GPR3; procedure of Example 24): 1000 to 30000 nM | IC50 (GPR6; procedure of Example 24): 100 to 1000 nM
SMILES: CC(C)(O)C(C)(O)c1cc2nc(N3CCN(Cc4ccccc4F)CC3)c(-c3cnn(CF)c3)nc2cn1 (stereo not drawn) [Compound 622, 2-{3-[1-(fluoromethyl)-4-pyrazolyl]-2-{4-[(o-fluorophenyl)methyl]-1-piperazinyl}-1,4,6-triaza-7-naphthyl}-3-methyl-2,3-butanediol]

IC50 (GPR3; procedure of Example 24): 1000 to 30000 nM | IC50 (GPR6; procedure of Example 24): < 100 nM
SMILES: CCn1cc(-c2nc3c(nc2N2CCC(Oc4ccc(F)cc4F)CC2)CCN(C(=O)CO)C3)cn1 [Compound 311, 1-{2-[4-(2,4-difluorophenoxy)piperidin-1-yl]-3-(1-ethyl-1H-pyrazol-4-yl)-5H,6H,7H,8H-pyrido[3,4-b]pyrazin-6-yl}-2-hydroxyethan-1-one]

IC50 (GPR3; [4]): 1000 to 30000 nM | IC50 (GPR6; [5]): 1000 to 30000 nM
SMILES: CC(C)(C)OC(=O)N1CCCC1C(=O)N1CCc2nc(N3CCC(Oc4ccc(F)cc4F)CC3)c(-c3cnn(C4CCCCO4)c3)nc2C1 (stereo not drawn) [Compound 186, tert-butyl 2-{2-[4-(2,4-difluorophenoxy)piperidin-1-yl]-3-[1-(oxan-2-yl)-1H-pyrazol-4-yl]-5H,6H,7H,8H-pyrido[3,4-b]pyrazine-6-carbonyl}pyrrolidine-1-carboxylate]

IC50 (GPR3; [2]): 1000 to 30000 nM | IC50 (GPR6; [3]): 100 to 1000 nM
SMILES: CC(C)(O)[C@H](O)c1cc2nc(N3CCC(Oc4ccc(F)cc4F)CC3)c(-c3cnn(C4CC4)c3)nc2cn1 (single isomer, unassigned) [Compound 572]

IC50 (GPR3; procedure of Example 24): 100 to 1000 nM | IC50 (GPR6; procedure of Example 24): < 100 nM
SMILES: Cn1cc(-c2nc3cnccc3nc2N2CCC(Cc3ccc(F)cc3F)CC2)cn1 [Compound 368, 4-[(2,4-difluorophenyl)methyl]-1-[3-(1-methyl-1H-pyrazol-4-yl)pyrido[3,4-b]pyrazin-2-yl]piperidine]

IC50 (GPR3; procedure of Example 24): 1000 to 30000 nM | IC50 (GPR6; procedure of Example 24): 100 to 1000 nM
SMILES: CCn1cc(-c2nc3cnc(C(=O)C(C)(C)O)cc3nc2N2CCN(Cc3ccc(F)cc3F)CC2)cn1 [Compound 624, 1-(2-{4-[(2,4-difluorophenyl)methyl]-1-piperazinyl}-3-(1-ethyl-4-pyrazolyl)-1,4,6-triaza-7-naphthyl)-2-hydroxy-2-methyl-1-propanone]

IC50 (GPR3; [1]): 100 to 1000 nM | IC50 (GPR6; [1]): 1000 to 30000 nM
SMILES: CC(=O)N1CCc2nc(N3CCC(Oc4ccc(F)cc4F)CC3)c(-c3ccn(C(=O)OC(C)(C)C)c3)nc2C1 [Compound 53, tert-butyl 3-{6-acetyl-2-[4-(2,4-difluorophenoxy)piperidin-1-yl]-5H,6H,7H,8H-pyrido[3,4-b]pyrazin-3-yl}-1H-pyrrole-1-carboxylate]

IC50 (GPR3; procedure of Example 24): 1000 to 30000 nM | IC50 (GPR6; procedure of Example 24): < 100 nM
SMILES: CC(C)(O)[C@@](C)(O)c1cc2nc(-c3cnn(C4CC4)c3)c(N3CCN(Cc4ccc(F)cc4F)CC3)nc2cn1 (single isomer, unassigned) [Compound 682]

IC50 (GPR3; [2]): 1000 to 30000 nM | IC50 (GPR6; [3]): 1000 to 30000 nM
SMILES: CC(=O)N1CCc2nc(N3CCN(Cc4ccsc4)CC3)c(-c3cnn(C)c3)nc2C1 [Compound 514, 1-[3-(1-methyl-4-pyrazolyl)-2-{4-[(3-thienyl)methyl]-1-piperazinyl}-5,6,7,8-tetrahydro-1,4,6-triaza-6-naphthyl]-1-ethanone]

IC50 (GPR3; [4]): 100 to 1000 nM | IC50 (GPR6; [5]): ≥ 30000 nM
SMILES: CC(=O)N1CCc2nc(N3CCC(C(=O)N(C)C)C3)c(-c3cnn(C)c3)nc2C1 (stereo not drawn) [Compound 388, 1-[6-acetyl-3-(1-methyl-1H-pyrazol-4-yl)-5H,6H,7H,8H-pyrido[3,4-b]pyrazin-2-yl]-N,N-dimethylpyrrolidine-3-carboxamide]
